Assay results taken from patent US20250025466A1, “New oral pharmaceutical composition and dose regimen for the therapy of progressive fibrosing interstitial lung diseases” (Boehringer Ingelheim International GmbH, priority 2021, published 2025).
Marks after values point to notes of the source that are not given here.

Columns and labels:
[1] = test system: skin fibrosis; settings: induced by bleomycin or topoisomerase I and chronic graft-versus-host disease; cited from earlier work
[2] = test system: hepatic stellate cells; settings: cited from earlier work
[3] = test system: A549 human alveolar epithelial cell line; settings: TGF-β1-stimulated; cited from earlier work
[4] = test system: human fetal lung fibroblasts (HFL-1); settings: cited from earlier work
[5] = test system: bile duct ligation-induced hepatic fibrosis; settings: rat, in vivo; cited from earlier work
[6] = test system: mouse primary tubular epithelial cells; settings: cited from earlier work
[7] = test system: cecal abrasion model; settings: mouse, in vivo; cited from earlier work
[8] = test system: sponge implant model; settings: subcutaneous or intraperitoneal implant; cited from earlier work
[9] = test system: renal interstitial fibrosis; settings: mouse, in vivo; cited from earlier work
[10] = test system: bleomycin-induced fibrosis; settings: administered from the beginning of bleomycin challenge; cited from earlier work
[11] = test system: trinitrobenzene sulfonic acid-induced colitis; settings: rat, in vivo; cited from earlier work
[12] = test system: chronic graft-versus-host disease; settings: cited from earlier work
[13] = test system: normal human lung fibroblasts (NHLFs); settings: in the presence of indacaterol; cited from earlier work
[14] = test system: bleomycin-induced fibrosis; settings: cited from earlier work
[15] = test system: human lung fibroblast model (WI-38); settings: in the presence of forskolin; cited from earlier work
[16] = test system: bleomycin mice; settings: mouse, in vivo; cited from earlier work
[17] = test system: type II alveolar epithelial cells; settings: cited from earlier work
[18] = test system: diethylnitrosamine-induced liver fibrosis; settings: rat, in vivo; cited from earlier work
[19] = test system: bleomycin mice; settings: mouse, in vivo; cited from earlier work; remark: listed apart in the source
[20] = test system: human fetal lung fibroblast strain (GM06114); settings: in the presence of PGE2; cited from earlier work
[21] = test system: normal human lung fibroblasts (NHLFs); settings: stimulated by bleomycin or 8-epi-PGF2α; cited from earlier work
[22] = test system: patients with IPF; settings: IPF with mild or moderate impairment of FVC (≥50% predicted); cited from earlier work
[23] = test system: patients with IPF; settings: in vivo; cited from earlier work
[24] = test system: tuberculosis model; settings: rabbit, in vivo; cited from earlier work
[25] = test system: human lung fibroblasts; settings: combination with nintedanib; WO2019/081235; cited from earlier work
[26] = test system: IPF patients; settings: male, human, in vivo, 13 weeks
[27] = biological target: PDE4 B subtype (Homo sapiens, UniProt Q07343); settings: disclosed in WO 2013/026797; cited from earlier work
Chain of PDE4 B subtype (Q07343 whole entry): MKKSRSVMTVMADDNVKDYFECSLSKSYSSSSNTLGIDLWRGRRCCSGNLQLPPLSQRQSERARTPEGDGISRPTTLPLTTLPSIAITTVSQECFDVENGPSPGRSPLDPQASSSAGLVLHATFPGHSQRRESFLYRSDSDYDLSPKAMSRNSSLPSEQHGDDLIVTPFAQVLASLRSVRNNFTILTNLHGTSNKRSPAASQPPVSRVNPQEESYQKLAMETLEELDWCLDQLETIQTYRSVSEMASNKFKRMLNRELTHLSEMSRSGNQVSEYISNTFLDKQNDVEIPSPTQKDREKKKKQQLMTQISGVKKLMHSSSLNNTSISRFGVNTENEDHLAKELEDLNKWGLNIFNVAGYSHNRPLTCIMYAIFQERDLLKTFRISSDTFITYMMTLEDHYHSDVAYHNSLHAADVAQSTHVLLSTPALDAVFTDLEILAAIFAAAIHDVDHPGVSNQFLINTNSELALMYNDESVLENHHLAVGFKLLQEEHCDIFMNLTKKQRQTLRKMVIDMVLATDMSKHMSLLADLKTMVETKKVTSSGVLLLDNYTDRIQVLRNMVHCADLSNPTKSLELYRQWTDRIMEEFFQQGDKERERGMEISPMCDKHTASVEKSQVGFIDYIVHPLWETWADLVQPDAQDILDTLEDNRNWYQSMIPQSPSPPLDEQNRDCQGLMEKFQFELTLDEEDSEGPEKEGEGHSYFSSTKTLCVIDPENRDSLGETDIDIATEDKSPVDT

[28] = test system: IPF patients; test: Phase II clinical trial in IPF patients: Treatment Emergent Adverse Events
[29] = test system: IPF patients; test: Phase II clinical trial in IPF patients: disposition / premature discontinuation; format: in vivo, human; settings: 18 mg b.i.d.
Protocol: The participants were divided into 2 groups by chance (the “active agent group” and the “placebo group”). […] One 12 mg placebo tablet and one 6 mg placebo tablet (both containing no active ingredient, see Table 1) was administered orally to the patients of the second group twice daily (b.i.d.).
The “active agent group” and the “placebo group” were further distributed to two different groups regarding background medication: the “AF-group” (“antifibrotic background medication group”) and the “Non-AF-group” (“no antifibrotic background medication group”). […] The combination of both nintedanib and pirfenidone as background medication was not allowed in the “AF-group”.
The trial was a randomised, double-blind, placebo-controlled parallel group study.

[30] = test system: dextran sulfate sodium-induced colitis ulcerosa; settings: mouse, in vivo; cited from earlier work
[31] = test system: normal human lung fibroblasts (NHLFs); settings: in the presence of PGE2; cited from earlier work
[32] = test system: normal human lung fibroblasts (NHLFs); settings: cited from earlier work
[33] = AF-group nintedanib background, 18 mg b.i.d.
[34] = AF-group pirfenidone background, 18 mg b.i.d.
[35] = Total (Non-AF + AF), 18 mg b.i.d.

Compound: COc1ccc(C2CNC(=O)C2)cc1OC1CCCC1 (stereo not shown) [rolipram]
- Skin fibrosis [1]: inhibited
- mRNA expression of α-SMA and Col1A2 [2]: inhibited mRNA expression of α-SMA and Col1A2
- Epithelial-mesenchymal transition changes [3]: inhibited epithelial-mesenchymal transition changes like FN and collagen mRNA expression, although not α-SMA mRNA
- FN-induced chemotaxis and contraction of collagen gels [4]: inhibited FN-induced chemotaxis and contraction of collagen gels
- Collagen deposition, α-SMA staining and mRNA expression [5]: inhibited collagen deposition, α-smooth muscle actin (α-SMA) staining, and mRNA expression
- TGF-β-induced damage, FN expression, deficiency of mitochondrial biogenesis [6]: inhibited TGF-β-induced damage, FN expression, and deficiency of mitochondrial biogenesis
- Fibrotic reactions [7]: inhibited fibrotic reactions
- Intra-implant collagen and TGF-β1 deposition [8]: inhibiting intra-implant collagen and TGF-β1 deposition
- Renal interstitial fibrosis [9]: inhibit renal interstitial fibrosis
- Fibrotic score, hydroxyproline content, serum TNF-α [10]: inhibit fibrotic score, hydroxyproline content, and serum tumor necrosis factor-α (TNF-α)
- Collagen and TGF-β1 in colonic tissue [11]: inhibited collagen and TGF-β1

Compound: O=C(Nc1c(Cl)cncc1Cl)c1ccc(OC(F)F)c(OCC2CC2)c1 [roflumilast]
- Fibrosis, collagen deposition, hydroxyproline, TGF-β1, cell infiltration, IL-6 and IL-1β mRNA ([12]; mouse, in vivo): inhibited fibrosis, collagen deposition, hydroxyproline and TGF-β1 content, cell infiltration, and expression of mRNA for IL-6 and IL-1β
- Lung fibrosis ([12]; oral): attenuated
- TGF-β1-induced CTGF mRNA, α-SMA protein expression and FN [13]: inhibition
- Right ventricular hypertrophy and vascular remodeling (pulmonary arteries) ([14]; in vivo): positively influenced
- Fibrosis, hydroxyproline content and mRNA expression in lung extracts ([14]; lung extracts): inhibited histologically assessed fibrosis, hydroxyproline content
- Activity in preventive and therapeutic protocols ([14]; oral): active both in preventive and in therapeutic protocols in a dose-dependent manner
- TGF-β-induced mRNA expression of collagen α1, CTGF, and FN [15]: inhibited
- Levels of the amino acids glycine and proline [16]: lowered
- Lung glutathione and plasma tetrahydrobiopterin [16]: increased
- Lung hydroxyproline content and mRNA expression of TNF-α, FN, CTGF ([17]; mouse, in vivo): lowered lung hydroxyproline content and mRNA expression of TNF-α, fibronectin (FN), and CTGF
- Potency relative to pirfenidone and nintedanib ([17]; therapeutic regimen): therapeutically equipotent to pirfenidone and nintedanib
- Liver fibrosis, hydroxyproline deposition, TGF-β1 expression [18]: inhibited diethylnitrosamine-induced liver fibrosis, hydroxyproline deposition, and TGF-β1 expression

Compound: COc1ccc([C@]2(C#N)CC[C@@H](C(=O)O)CC2)cc1OC1CCCC1 [cilomilast]
- Late-stage lung fibrosis and collagen content [19]: inhibit late-stage lung fibrosis and tended to reduce collagen content
- TGF-β1 and collagen type (Col) 1A1 expression [19]: no effect
- FN-induced chemotaxis and contraction of collagen gels [4]: inhibited FN-induced chemotaxis and contraction of collagen gels

Compound: O=C(Nc1c(Cl)c[n+]([O-])cc1Cl)c1ccc(OC(F)F)c(OCC2CC2)c1 [roflumilast N-oxide]
- ICAM-1 and eotaxin release, proliferation, α-SMA, CTGF, FN mRNA [20]: inhibit intercellular adhesion molecule-1 and cotaxin release stimulated by TNF-α
- NHLF responses (collagen synthesis, proliferation, ROS and F2-isoprostane formation, NADPH oxidase 4 expression) [21]: inhibited

Compound: COC(=O)c1ccc2c(c1)NC(=O)/C2=C(\Nc1ccc(N(C)C(=O)CN2CCN(C)CC2)cc1)c1ccccc1 [nintedanib]
- Effect on FVC decline [22]: can only reduce the decline in FVC
- Most prominent side effects [23]: gastrointestinal events, particularly diarrhea, nausea, vomiting, abdominal pain, decreased appetite and a decreased body weight

Compound: CCOc1cc([C@@H](CS(C)(=O)=O)N2Cc3cccc(NC(=O)C4CC4)c3C2=O)ccc1OC [CC-11050]
- Pulmonary damage and fibrosis [24]: inhibited

Compound: [O-][S@+]1CCc2nc(N3CCC(c4ncc(Cl)cn4)CC3)nc(NC3(CO)CCC3)c21 [Comp. of Form. III]
- Effect on fibroblast proliferation [25]: synergistic overadditive effect
- Moderate cases of diarrhoea [26]: 2.1%
- Severe case of diarrhoea [26]: 1.0%
- PDE4 subtype preference [27]: inhibit preferentially the PDE4 B subtype
- AE: Infections and infestations [28, 33]: 6 (23.1) n (%)
- Serious AEs: Results in Death, % [28, 33]: 0%
- AE: Infections and infestations [28, 34]: 1 (4.3) n (%)
- Serious AEs: Results in Death, % [28, 34]: 4.3%
- AE: Infections and infestations ([28]; AF-group, 18 mg b.i.d.): 7 (14.3) n (%)
- Patients with AE resulting in death ([28]; AF-group, 18 mg b.i.d.): 1 (2.0) n (%)
- SAE: General disorders and administration side conditions, fatal events ([28]; AF-group, 18 mg b.i.d., bracketed value marked * (fatal events)): [1 (2.1)]* n (%)
- SAE: Vasculitis ([28]; AF-group, 18 mg b.i.d., fatal event): 1 (2.0)* n (%)
- AE: Infections and infestations ([28]; Non-AF-group, 18 mg b.i.d.): 7 (14.6) n (%)
- Patients with AE resulting in death ([28]; Non-AF-group, 18 mg b.i.d.): 1 (2.1) n (%)
- SAE: Infections and Infestations ([28]; Non-AF-group, 18 mg b.i.d.): 1 (2.1) n (%)
- SAE: Covid-19 pneumonia ([28]; Non-AF-group, 18 mg b.i.d., fatal event): 1 (2.1)* n (%)
- AE: Infections and infestations [28, 35]: 14 (14.4) n (%)
- Patients with AE resulting in death [28, 35]: 2 (2.1) n (%)
- SAE: Covid-19 pneumonia [28, 35]: 1 (1.0) n (%)
- SAE: Infections and Infestations [28, 35]: 1 (1.0) n (%)
- Patients who experienced an AE resulting in death ([28]; active agent group, all, one Covid-19 pneumonitis, one unconfirmed vasculitis): 2 patients
- Not completed observation period: Death, % ([29]; AF-group): 2.0%
- Not completed planned treatment period (prematurely discontinued trial medication), % ([29]; AF-group): 20.4%
- Not completed treatment period: Adverse Event, % ([29]; AF-group): 20.4%
- Not completed observation period: Death, % ([29]; Non-AF-group): 2.1%
- Not completed planned treatment period (prematurely discontinued trial medication), % ([29]; Non-AF-group): 10.4%
- Not completed treatment period: Adverse Event, % ([29]; Non-AF-group): 6.3%

Compound: CCOc1cc([C@@H](CS(C)(=O)=O)N2C(=O)c3cccc(NC(C)=O)c3C2=O)ccc1OC [apremilast]
- Skin fibrosis [1]: inhibited
- Fibrosis in colon, collagen deposition, fibrosis-related gene expression [30]: inhibited fibrosis in colon, collagen deposition, and the expression of genes related to fibrosis

Compound: COc1ccc(C(=O)Nc2c(Cl)cncc2Cl)cc1OC1CCCC1 [piclamilast]
- TGF-β-induced fibroblast-to-myofibroblast conversion (α-SMA expression) [31]: inhibited
- IL-1β plus bFGF-stimulated fibroblast proliferation [32]: inhibition of IL-1β plus bFGF-stimulated fibroblast proliferation

Compound: Cc1ccc(=O)n(-c2ccccc2)c1 [pirfenidone]
- Effect on FVC decline [22]: can only reduce the decline in FVC
- Most prominent side effects [23]: gastrointestinal events, particularly diarrhea, nausea, vomiting, abdominal pain, decreased appetite and a decreased body weight
